Patent US12091411B2, “IRAK degraders and uses thereof” (Kymera Therapeutics, Inc., priority 2022, dated 2024)
Where two headings read alike, the source gives them in different places.

Molecular target: T1, IRAK4 (Homo sapiens, UniProt Q9NWZ3)
T1 construct: Degradation of IRAK4 in OCI-LY10 was quantitatively measured using Meso Scale Discovery technology; endogenous in cells; host or cells: OCI-LY10
T1 sequence (Q9NWZ3 1-460): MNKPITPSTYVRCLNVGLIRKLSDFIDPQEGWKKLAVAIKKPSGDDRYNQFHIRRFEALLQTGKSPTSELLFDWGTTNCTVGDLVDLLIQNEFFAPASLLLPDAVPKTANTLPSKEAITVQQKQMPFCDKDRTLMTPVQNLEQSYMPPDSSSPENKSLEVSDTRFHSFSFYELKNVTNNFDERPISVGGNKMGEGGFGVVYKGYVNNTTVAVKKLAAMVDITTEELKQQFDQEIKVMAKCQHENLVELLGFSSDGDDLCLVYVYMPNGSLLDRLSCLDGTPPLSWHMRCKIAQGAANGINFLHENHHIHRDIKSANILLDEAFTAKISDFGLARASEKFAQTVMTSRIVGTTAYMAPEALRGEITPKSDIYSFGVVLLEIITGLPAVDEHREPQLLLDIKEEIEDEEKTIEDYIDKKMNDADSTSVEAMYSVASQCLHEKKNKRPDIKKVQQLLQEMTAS
Assay: IRAK4 MSD Degradation in OCI-LY10
Assay type: cell-based
Conditions: OCI-LY10 cells, MSD
How it was run: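 DC50, from a three-parameter logistic fit and reported as letter bins A (<0.01 μM), B, C, D (>0.2 μM or not tested), reflects IRAK4 loss measured by MSD electrochemiluminescence in OCI-LY10 lysates. Treatment: 8 doses, 1:3 steps, top 1 to 10 μM, 4 to 24 h, 37 °C.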

[1] = 4 hrs incubation, read-out: IRAK4 degradation in OCI-LY10 at 4 hrs: DC50
[2] = 24 hrs incubation, read-out: IRAK4 degradation in OCI-LY10 at 24 hrs: DC50

SMILES	DC50 [1]	DC50 [2]
CN(C[C@H]1CC[C@H](n2cc(NC(=O)c3cnn4ccc(N5CCOC6(CCC6)C5)nc34)c(C(F)F)n2)CC1)C1CCN(c2cccc3c2n(C)c(=O)n3C2CCC(=O)NC2=O)CC1(F)F (stereo partly drawn) [I-540]	> 200 nM	> 200 nM
CN(C[C@H]1CC[C@H](n2cc(NC(=O)c3cnn4ccc(N5CCSCC5)nc34)c(C(F)F)n2)CC1)C1CCN(c2cccc3c2n(C)c(=O)n3C2CCC(=O)NC2=O)CC1(F)F (stereo partly drawn) [I-541]	> 200 nM	> 200 nM
CN(C[C@H]1CC[C@H](n2cc(NC(=O)c3cnn4ccc(N5CCS(=O)(=O)CC5)nc34)c(C(F)F)n2)CC1)C1CCN(c2cccc3c2n(C)c(=O)n3C2CCC(=O)NC2=O)CC1(F)F (stereo partly drawn) [I-542]	> 200 nM	> 200 nM
CN(C[C@H]1CC[C@H](n2cc(NC(=O)c3cnn4ccc(N5CCCCCC5)nc34)c(C(F)F)n2)CC1)C1CCN(c2cccc3c2n(C)c(=O)n3C2CCC(=O)NC2=O)CC1(F)F (stereo partly drawn) [I-543]	> 200 nM	> 200 nM
CN(C[C@H]1CC[C@H](n2cc(NC(=O)c3cnn4ccc(N5CCCOCC5)nc34)c(C(F)F)n2)CC1)C1CCN(c2cccc3c2n(C)c(=O)n3C2CCC(=O)NC2=O)CC1(F)F (stereo partly drawn) [I-544]	> 200 nM	10 to 100 nM
Cn1c(=O)n(C2CCC(=O)NC2=O)c2cccc(C3CCN(C[C@H]4CC[C@H](n5cc6cc(NC(=O)c7cccc(C(F)(F)F)n7)c(C(F)F)cc6n5)CC4)CC3F)c21 (stereo partly drawn) [I-545]	> 200 nM	< 10 nM
COc1ccc2c(c1C1CCN(C[C@H]3CC[C@H](n4cc5cc(NC(=O)c6cccc(C(F)(F)F)n6)ncc5n4)CC3)CC1F)n(C)c(=O)n2C1CCC(=O)NC1=O (stereo partly drawn) [I-546]	> 200 nM	> 200 nM
COc1cc2nn([C@H]3CC[C@H](CN4CCC(c5cccc6c5n(C)c(=O)n6C5CCC(=O)NC5=O)C(F)C4)CC3)cc2cc1NC(=O)c1cccc(C(F)(F)F)n1 (stereo partly drawn) [I-547]	> 200 nM	< 10 nM
Cn1c(=O)n(C2CCC(=O)NC2=O)c2cccc(C3CCN(C[C@H]4CC[C@H](n5cc6cc(NC(=O)c7cccc(C(F)(F)F)n7)c(C#N)cc6n5)CC4)CC3F)c21 (stereo partly drawn) [I-548]	> 200 nM	< 10 nM
Cn1c(=O)n(C2CCC(=O)NC2=O)c2cccc(C3CCN(C[C@H]4CC[C@H](n5cc6cc(NC(=O)c7cccc(C(F)(F)F)n7)ncc6n5)CC4)CC3F)c21 (stereo partly drawn) [I-549]	> 200 nM	< 10 nM
Cc1cc2nn([C@H]3CC[C@H](CN4CCC(c5cccc6c5n(C)c(=O)n6C5CCC(=O)NC5=O)C(F)C4)CC3)cc2cc1NC(=O)c1cccc(C(F)(F)F)n1 (stereo partly drawn) [I-550]	> 200 nM	< 10 nM
COc1ccc2c(c1C1CCN(C[C@H]3CC[C@H](n4cc5cc(NC(=O)c6cccc(C(F)(F)F)n6)ccc5n4)CC3)CC1F)n(C)c(=O)n2C1CCC(=O)NC1=O (stereo partly drawn) [I-551]	> 200 nM	> 200 nM
Cn1c(=O)n(C2CCC(=O)NC2=O)c2cccc(C3CCN(C[C@H]4CC[C@H](n5cc6cc(NC(=O)c7cccc(C(F)(F)F)n7)c(Cl)cc6n5)CC4)CC3F)c21 (stereo partly drawn) [I-552]	> 200 nM	10 to 100 nM
Cn1c(=O)n(C2CCC(=O)NC2=O)c2cccc(C3CCN(C[C@H]4CC[C@H](n5cc6cc(NC(=O)c7cccc(C(F)(F)F)n7)ccc6n5)CC4)CC3F)c21 (stereo partly drawn) [I-553]	> 200 nM	< 10 nM
Cn1c(=O)n(C2CCC(=O)NC2=O)c2cccc(C3CCN(C[C@H]4CC[C@H](n5cc6cc(NC(=O)c7cccc(C(F)(F)F)n7)c(F)cc6n5)CC4)CC3F)c21 (stereo partly drawn) [I-554]	> 200 nM	10 to 100 nM
CN(C[C@H]1CC[C@H](n2cc3cc(NC(=O)c4cccc(C(F)(F)F)n4)ccc3n2)CC1)C1CCN(c2cccc3c2n(C)c(=O)n3C2CCC(=O)NC2=O)CC1F (stereo partly drawn) [I-555]	> 200 nM	10 to 100 nM
COc1cc2nn([C@H]3CC[C@H](CN(C)C4CCN(c5cccc6c5n(C)c(=O)n6C5CCC(=O)NC5=O)CC4F)CC3)cc2cc1NC(=O)c1cccc(C(F)(F)F)n1 (stereo partly drawn) [I-556]	> 200 nM	> 200 nM
CN(C[C@H]1CC[C@H](n2cc3cc(NC(=O)c4cccc(C(F)(F)F)n4)c(C(F)F)cc3n2)CC1)C1CCN(c2cccc3c2n(C)c(=O)n3C2CCC(=O)NC2=O)CC1F (stereo partly drawn) [I-557]	> 200 nM	> 200 nM
CN(C[C@H]1CC[C@H](n2cc3cc(NC(=O)c4cccc(C(F)(F)F)n4)c(C#N)cc3n2)CC1)C1CCN(c2cccc3c2n(C)c(=O)n3C2CCC(=O)NC2=O)CC1F (stereo partly drawn) [I-558]	> 200 nM	> 200 nM

SMILES	DC50 [1]	DC50 [2]
CN(C[C@H]1CC[C@H](n2cc3cc(NC(=O)c4cccc(C(F)(F)F)n4)c(S(C)(=O)=O)cc3n2)CC1)C1CCN(c2cccc3c2n(C)c(=O)n3C2CCC(=O)NC2=O)CC1F (stereo partly drawn) [I-559]	> 200 nM	> 200 nM
CN(C[C@H]1CC[C@H](n2cc3cc(NC(=O)c4cccc(C(F)(F)F)n4)c(S(C)(=N)=O)cc3n2)CC1)C1CCN(c2cccc3c2n(C)c(=O)n3C2CCC(=O)NC2=O)CC1F (stereo partly drawn) [I-560]	> 200 nM	> 200 nM
CN(C[C@H]1CC[C@H](n2cc3cc(NC(=O)c4cccc(C(F)(F)F)n4)c([S+](C)[O-])cc3n2)CC1)C1CCN(c2cccc3c2n(C)c(=O)n3C2CCC(=O)NC2=O)CC1F (stereo partly drawn) [I-561]	> 200 nM	> 200 nM
COc1ccc2c(c1N1CCC(N(C)C[C@H]3CC[C@H](n4cc(NC(=O)c5cnn6cccnc56)c(C(F)F)n4)CC3)C(F)C1)n(C)c(=O)n2C1CCC(=O)NC1=O (stereo partly drawn) [I-563]	> 200 nM	> 200 nM
Cn1c(=O)n(C2CCC(=O)NC2=O)c2cccc(N3CC(F)(F)C34CN(C[C@H]3CC[C@H](n5cc6cc(NC(=O)c7cccc(C(F)(F)F)n7)c(C#N)cc6n5)CC3)C4)c21 (stereo partly drawn) [I-564]	> 200 nM	> 200 nM
Cn1c(=O)n(C2CCC(=O)NC2=O)c2cccc(N3CC4(C3)N(C[C@H]3CC[C@H](n5cc6cc(NC(=O)c7cccc(C(F)(F)F)n7)c(C#N)cc6n5)CC3)CC4(F)F)c21 (stereo partly drawn) [I-565]	> 200 nM	> 200 nM
Cn1c(=O)n(C2CCC(=O)NC2=O)c2cccc(N3CCC(N4CC5(CCC(n6cc7cc(NC(=O)c8cccc(C(F)(F)F)n8)c(C#N)cc7n6)CC5)C4)C(F)(F)C3)c21 (stereo not drawn) [I-566]	> 200 nM	> 200 nM
Cn1c(=O)n(C2CCC(=O)NC2=O)c2cccc(N3CCC(F)(CN4CC5(CCC(n6cc7cc(NC(=O)c8cccc(C(F)(F)F)n8)c(C#N)cc7n6)CC5)C4)CC3)c21 (stereo not drawn) [I-567]	> 200 nM	> 200 nM
Cn1c(=O)n(C2CCC(=O)NC2=O)c2ccc(C3CCN(C[C@H]4CC[C@H](n5cc6cc(NC(=O)c7cccc(C(F)(F)F)n7)c(C#N)cc6n5)CC4)CC3(F)F)cc21 (stereo partly drawn) [I-568]	> 200 nM	> 200 nM
Cn1c(=O)n(C2CCC(=O)NC2=O)c2ccc(C3CCN(C[C@H]4CC[C@H](n5cc6cc(NC(=O)c7cccc(C(F)(F)F)n7)c(C(F)F)cc6n5)CC4)CC3(F)F)cc21 (stereo partly drawn) [I-569]	> 200 nM	> 200 nM
CN(C[C@H]1CC[C@H](n2cc(NC(=O)c3cnn4cccnc34)c(C(F)F)n2)CC1)C1CCN(c2ccc3c(c2)n(C)c(=O)n3C2CCC(=O)NC2=O)CC1(F)F (stereo partly drawn) [I-570]	> 200 nM	–
Cn1c(=O)n(C2CCC(=O)NC2=O)c2cccc([C@H]3C[C@H](COC4CCN(C[C@H]5CC[C@H](n6cc(NC(=O)c7cnn8ccc(N9C[C@H]%10C[C@@H]9CO%10)nc78)c(C(F)F)n6)CC5)CC4F)C3)c21 (stereo partly drawn) [I-571]	> 200 nM	> 200 nM
Cn1c(=O)n(C2CCC(=O)NC2=O)c2cccc([C@H]3C[C@H](CN4CCN(C[C@H]5CC[C@H](n6cc(NC(=O)c7cnn8cccnc78)c(C(F)F)n6)CC5)CC4)C3)c21 (stereo partly drawn) [I-572]	> 200 nM	> 200 nM
Cn1c(=O)n(C2CCC(=O)NC2=O)c2cccc([C@H]3C[C@@H]3CN3CCN(C[C@H]4CC[C@H](n5cc(NC(=O)c6cnn7ccc(N8C[C@H]9CC8CO9)nc67)c(C(F)F)n5)CC4)CC3)c21 (stereo partly drawn) [I-573]	> 200 nM	> 200 nM
Cn1c(=O)n(C2CCC(=O)NC2=O)c2cccc([C@H]3C[C@](F)(CN4CCN(C[C@H]5CC[C@H](n6cc(NC(=O)c7cnn8ccc(N9C[C@H]%10CC9CO%10)nc78)c(C(F)F)n6)CC5)CC4)C3)c21 (stereo partly drawn) [I-574]	> 200 nM	> 200 nM
C[C@@H]([C@H]1C[C@H](c2cccc3c2n(C)c(=O)n3C2CCC(=O)NC2=O)C1)N1CCN(C[C@H]2CC[C@H](n3cc(NC(=O)c4cnn5ccc(N6C[C@H]7CC6CO7)nc45)c(C(F)F)n3)CC2)CC1 (stereo partly drawn) [I-575]	> 200 nM	> 200 nM
Cn1c(=O)n(C2CCC(=O)NC2=O)c2cccc(C[C@H]3C[C@H](N4CCN(C[C@H]5CC[C@H](n6cc(NC(=O)c7cnn8ccc(N9C[C@H]%10CC9CO%10)nc78)c(C(F)F)n6)CC5)CC4)C3)c21 (stereo partly drawn) [I-576]	> 200 nM	< 10 nM
Cn1c(=O)n(C2CCC(=O)NC2=O)c2cccc(O[C@H]3C[C@H](N4CCN(C[C@H]5CC[C@H](n6cc(NC(=O)c7cnn8ccc(N9C[C@H]%10CC9CO%10)nc78)c(C(F)F)n6)CC5)CC4)C3)c21 (stereo partly drawn) [I-577]	> 200 nM	> 200 nM
CO[C@]1(CN2CCN(C[C@H]3CC[C@H](n4cc(NC(=O)c5cnn6ccc(N7C[C@H]8CC7CO8)nc56)c(C(F)F)n4)CC3)CC2)C[C@H](c2cccc3c2n(C)c(=O)n3C2CCC(=O)NC2=O)C1 (stereo partly drawn) [I-579]	> 200 nM	> 200 nM
